Holding throughout (type): cell-based, human
Test [1] deals with cyclin D1 protein (Thr286 phosphorylation). Description: Western blot of cyclin D1 and p-Thr286 cyclin D1 in HA-CD1 SW480 cells treated with kinase inhibitors. To be noted: HA-WT CD1 SW480 cells; 24 hours of treatment. Here is the method: Immunoblot analysis was performed. […] Asterisks indicate endogenous cyclin D1 expression. Panel B: Western blot analysis with fractionated nuclear proteins. […] Cell-cycle distribution was shown as bar graphs. Nuclear proteins were fractionated at indicated time points. […] Levels of total and phosphorylated cyclin D1 were determined.
Immunoblotting Analysis. […] SDS-PAGE was described previously (Tetsu and McCormick, 2003).
To identify the kinase responsible for cyclin D1 Thr286 phosphorylation, small molecule inhibitors of GSK3β, CDK4, and MEK were used to determine whether they were able to alter the phosphorylation and stability of ectopically expressed WT cyclin D1 protein in cultured cells (FIG. 5, Panels C and D). Ectopically expressed WT cyclin D1 protein was used to assess the stability of cyclin D1 protein. The endogenous expression was not assessed because transcription of cyclin D1 is regulated by the Ras/MAPK signaling. Therefore, endogenous expression of cyclin D1 is unable to be detected following inhibition of MAPK activities through the MEK/MAPK inhibitors or serum starvation (Tetsu et al., 2003. Cancer Cell. 3, 233-45).
For orientation: Immunoblotting shows a protein as a band on a membrane.

In the next test the test system is GSK3α/β. As to the kind of experiment: Phosphorylation-specific blot for GSK3α/β, SW480 cells. The note with it: 24 hours of treatment.
Test [2] deals with HCT 116 colon cancer cells. As to the kind of experiment: Flow-cytometric cell cycle analysis, HCT 116 cells. The note with it: BIO 24 hours. Here is the method: Cell cycle analysis was carried out as described previously (Tetsu et al. (1999) Nature 398: 422-6; Tetsu et al. (2003) Cancer Cell 3: 233-45.
The test system of another test is cyclin D1. As to the kind of experiment: Immunofluorescence, subcellular localization of cyclin D1 in HCT 116 cells. To be noted: 5 μM BIO 24 hours, BrdU pulse. Here is the method:
Panels A-C: Immunofluorescence analysis. Nuclei were visualized with Hoechst dye. […] Panel A: Subcellular localization of cyclin D1. […] Panel B: Subcellular localization of the E3 ligase. […] Panel D: Immunoprecipitated-immunoblotting analysis. Panel E: Cell cycle distributions.
Immunofluorescence Analysis. Cultured cells on multiwell chamber slides (Nalge Nunc) were fixed with 4% paraformaldehyde in PBS and permeabilized in PBS containing 0.1% Triton X-100. Primary antibodies were diluted 1:100 in PBS containing 5% normal goat serum and applied for 2 hours. Proteins were detected either with mouse monoclonal antibodies or rabbit polyclonal antibodies followed by fluorescent substrate conjugated anti-mouse or anti-rabbit secondary antibody (Molecular Probes). For example, Cyclin D1 was detected either with mouse monoclonal cyclin D1 antibody (A-12, Santa Cruz) followed by fluorescent substrate conjugated anti-mouse or anti-rabbit secondary antibody (Molecular Probes). Nuclei were visualized using Hoechst 33258 (Molecular Probes). Fluorescence image was detected using LEICADMRD microscope (Leica).
Exponentially growing HCT 116 colon cancer cells were treated with the GSK3 inhibitor BIO for 24 hours. […] The subcellular distribution of cyclin D1 was visualized under the microscope (FIG. 12, Panel A). […]

The results in this text go back to patent publication US20070026431A1, “Modulation of MAPK-mediated phosphorylation and/or FBXW8-mediated ubiquitinylation of cyclin D1 in modulation of cellular proliferation” (priority 2005, published 2007).

In the case of `O=C1Nc2cc(Br)ccc2/C1=C1/Nc2ccccc2/C1=N\O` [BIO], in test [1], the “total cyclin D1 expression and its phosphorylated protein” value is “no significant difference”. Also, the “phosphorylated forms of GSK3α/β” value in the test with GSK3α/β was “disappeared”. Besides, the cell cycle profile entry in test [2] was “without affecting”. Besides, the “subcellular localization of cyclin D1” value in the test on cyclin D1 is “no significant difference”.
